Read-outs that look alike come from different tables or passages of the source.
Test system: parasite
Test: Parasite LDH growth assay (Parasite Assay), antiparasite potency
Assay type: cell-based
Settings: parasite LDH growth assay, ring stage parasites, 72 hours incubation at 37° C., read-out: EC50
Experimental: Assessing Antiparasite Potency in a Parasite LDH Growth Assay (Parasite Assay)
The parasite stock was maintained at 4% haematocrit in RPMI-Hepes media buffered with sodium bicarbonate and supplemented with 5% heat inactivated human serum and 0.5% albumax.
On the day of assay set up, a blood smear of the parasite culture was Giemsa stained and counted. The parasitemia was adjusted to 0.7% rings and the haematocrit was diluted to 2% in RPMI-Hepes media buffered with sodium bicarbonate and supplemented with 5% heat inactivated human serum and 0.5% albumax. 30 ul of diluted parasites are then added into 10 ul of media+compound in pre-prepared Greiner TC assay plates. Parasite assay plates were placed in gassed humidified boxes in single layer and allowed to incubate at 37° C. for 72 hours. After 72 hours growth, assay plates are sealed with parafilm and frozen flat, in single file at −80° C. overnight. On the following day, assay plates are allowed to thaw at room temperature for 4 hours to which an LDH assay is performed to measure parasite growth.

Compound | EC50 (72 h) [nM] | EC50 [nM]
CCC1(CC)CC(=O)N([C@@H]2CC(COC)Oc3ccc(C(=O)N[C@@H]4c5ccccc5OC(C)(C)[C@H]4O)cc32)C(=N)N1 (stereo partly drawn) [Example 18A, (4R)-4-(4,4-diethyl-2-imino-6-oxotetrahydropyrimidin-1(2H)-yl)-N-((3S,4R)-3-hydroxy-2,2-dimethylchroman-4-yl)-2-(methoxymethyl)chromane-6-carboxamide] | 0.8 | –
CCC1(CC)CC(=O)N([C@@H]2CCOc3ccc(C(=O)N[C@@H]4c5cc(Cl)ccc5OC(C)(C)[C@H]4O)cc32)C(=N)N1 [Example 19A, (R)-N-((3S,4R)-6-chloro-3-hydroxy-2,2-dimethylchroman-4-yl)-4-(4,4-diethyl-2-imino-6-oxotetrahydropyrimidin-1(2H)-yl)chromane-6-carboxamide] | 0.3 | –
CCC1(CC)CC(=O)N([C@@H]2CCOc3ccc(C(=O)N[C@@H]4c5cc(C#N)ccc5OC(C)(C)[C@H]4O)cc32)C(=N)N1 [Example 20A, (R)-N-((3S,4R)-6-cyano-3-hydroxy-2,2-dimethylchroman-4-yl)-4-(4,4-diethyl-2-imino-6-oxotetrahydropyrimidin-1(2H)-yl)chromane-6-carboxamide] | 0.8 | –
CCC1(CC)CC(=O)N([C@@H]2CCOc3ccc(C(=O)N[C@H]4CC(C)(C)Oc5ccc(C#N)cc54)cc32)C(=N)N1 [Example 21A, (R)-N-((S)-6-cyano-2,2-dimethylchroman-4-yl)-4-(4,4-diethyl-2-imino-6-oxotetrahydropyrimidin-1(2H)-yl)chromane-6-carboxamide] | 0.8 | –
CCC1(CC)CC(=O)N([C@@H]2CC3(COC3)Oc3ccc(C(=O)N[C@H]4CC(C)(C)Oc5ccccc54)cc32)C(=N)N1 [Example 22A, (R)-4-(4,4-diethyl-2-imino-6-oxotetrahydropyrimidin-1(2H)-yl)-N-((S)-2,2-dimethylchroman-4-yl)spiro[chromane-2,3′-oxetane]-6-carboxamide] | 0.7 | –
CCC1(CC)CC(=O)N([C@@H]2CC3(COC3)Oc3ccc(C(=O)N[C@@H]4c5ccccc5C[C@H]4O)cc32)C(=N)N1 [Example 23A, (R)-4-(4,4-diethyl-2-imino-6-oxotetrahydropyrimidin-1(2H)-yl)-N-((1R,2R)-2-hydroxy-2,3-dihydro-1H-inden-1-yl)spiro[chromane-2,3′-oxetane]-6-carboxamide] | 5 | –
CCC1(CC)CC(=O)N([C@@H]2CCOc3ccc(C(=O)N[C@@H]4c5cc(F)ccc5OC(C)(C)[C@H]4O)cc32)C(=N)N1 [Example 25A, (R)-4-(4,4-diethyl-2-imino-6-oxotetrahydropyrimidin-1(2H)-yl)-N-((3S,4R)-6-fluoro-3-hydroxy-2,2-dimethylchroman-4-yl)chromane-6-carboxamide] | 0.5 | –
CCC1(CC)CC(=O)N([C@@H]2CCOc3c(Cl)cc(C(=O)N[C@@H]4c5ccccc5OC(C)(C)[C@H]4O)cc32)C(=N)N1 [Example 29A, (R)-8-chloro-4-(4,4-diethyl-2-imino-6-oxotetrahydropyrimidin-1(2H)-yl)-N-((3S,4R)-3-hydroxy-2,2-dimethylchroman-4-yl)chromane-6-carboxamide] | 1 | –
CCC1(CC)CC(=O)N([C@@H]2CCOc3ccc(C(=O)N[C@@H]4c5ccccc5OC(C)(C)[C@H]4O)nc32)C(=N)N1 [Example 30A, (R)-4-(4,4-diethyl-2-imino-6-oxotetrahydropyrimidin-1(2H)-yl)-N-((3S,4R)-3-hydroxy-2,2-dimethylchroman-4-yl)-3,4-dihydro-2H-pyrano[3,2-b]pyridine-6-carboxamide] | 0.8 | –
CCC1(CC)CC(=O)N([C@@H]2CCOc3ccc(C(=O)N[C@H]4CC(C)(C)Oc5ccccc54)nc32)C(=N)N1 [Example 31B, (R)-4-(4,4-diethyl-2-imino-6-oxotetrahydropyrimidin-1(2H)-yl)-N-((S)-2,2-dimethylchroman-4-yl)-3,4-dihydro-2H-pyrano[3,2-b]pyridine-6-carboxamide] | 1 | –
CCC1(CC)CC(=O)N([C@@H]2CC(C)(C)Oc3ccc(C(=O)N[C@@H]4c5ccccc5CC4(C)O)cc32)C(=N)N1 (stereo partly drawn) [Example 42A, (4R)-4-(4,4-diethyl-2-imino-6-oxotetrahydropyrimidin-1(2H)-yl)-N-((1R)-2-hydroxy-2-methyl-2,3-dihydro-1H-inden-1-yl)-2,2-dimethylchromane-6-carboxamide] | – | 1
CCC1(CC)CC(=O)N([C@@H]2CC(C)(C)Oc3ccc(C(=O)N[C@@H]4c5cc(F)ccc5OC(C)(C)[C@H]4O)cc32)C(=N)N1 [Example 53A, (R)-4-(4,4-diethyl-2-imino-6-oxotetrahydropyrimidin-1(2H)-yl)-N-((3S,4R)-6-fluoro-3-hydroxy-2,2-dimethylchroman-4-yl)-2,2-dimethylchromane-6-carboxamide] | – | 0.3
CCC1(CC)CC(=O)N([C@@H]2CCOc3ccc(C(=O)NC4c5ccccc5OC4(C)COC)cc32)C(=N)N1 (stereo partly drawn) [Example 64B, (4R)-4-(4,4-diethyl-2-imino-6-oxotetrahydropyrimidin-1(2H)-yl)-N-(2-(methoxymethyl)-2-methyl-2,3-dihydrobenzofuran-3-yl)chromane-6-carboxamide] | – | 0.9
CCC1(CC)CC(=O)N([C@H]2c3cc(C(=O)N[C@@H]4c5ccccc5OC(C)(C)[C@H]4O)ccc3OCC2OC)C(=N)N1 (stereo partly drawn) [Example 67B, (3R,4S)-4-(4,4-diethyl-2-imino-6-oxotetrahydropyrimidin-1(2H)-yl)-N-((3S,4R)-3-hydroxy-2,2-dimethylchroman-4-yl)-3-methoxychromane-6-carboxamide] | – | 0.8
CCC1(CC)CC(=O)N([C@H]2c3cc(C(=O)N[C@H]4CC(C)(C)Oc5ccccc54)ccc3OC[C@@H]2OC)C(=N)N1 [Example 68A, (3R,4S)-4-(4,4-diethyl-2-imino-6-oxotetrahydropyrimidin-1(2H)-yl)-N-((S)-2,2-dimethylchroman-4-yl)-3-methoxychromane-6-carboxamide] | 1 | –
CCC1(CC)CC(=O)N([C@H]2c3cc(C(=O)N[C@@H]4c5ccccc5C[C@H]4O)ccc3OCC2OC)C(=N)N1 (stereo partly drawn) [Example 72A, (3R,4S)-4-(4,4-diethyl-2-imino-6-oxotetrahydropyrimidin-1(2H)-yl)-N-((1R,2R)-2-hydroxy-2,3-dihydro-1H-inden-1-yl)-3-methoxychromane-6-carboxamide] | – | 0.5
CCC1(CC)CC(=O)N([C@H]2c3cc(C(=O)N[C@@H]4c5ccccc5OC(C)(C)[C@H]4O)ccc3OC2(C)COC)C(=N)N1 (stereo partly drawn) [Example 73A, (2S,3S)-3-(4,4-diethyl-2-imino-6-oxotetrahydropyrimidin-1(2H)-yl)-N-((3S,4R)-3-hydroxy-2,2-dimethylchroman-4-yl)-2-(methoxymethyl)-2-methyl-2,3-dihydrobenzofuran-5-carboxamide] | – | 0.3
CCC1(CC)CC(=O)N([C@H]2c3cc(C(=O)N[C@H]4CC(C)(C)Oc5ccccc54)ccc3OC2(C)COC)C(=N)N1 (stereo partly drawn) [Example 74A, (2S,3S)-3-(4,4-diethyl-2-imino-6-oxotetrahydropyrimidin-1(2H)-yl)-N-((S)-2,2-dimethylchroman-4-yl)-2-(methoxymethyl)-2-methyl-2,3-dihydrobenzofuran-5-carboxamide] | – | 0.3
CCC1(CC)CC(=O)N([C@@H]2Cc3ccc(C(=O)N[C@@H]4c5ccccc5C[C@H]4O)cc32)C(=N)N1 [Example 83, (8R)-8-(4,4-diethyl-2-imino-6-oxo-hexahydropyrimidin-1-yl)-N-[(1R,2R)-2-hydroxyindan-1-yl]bicyclo[4.2.0]octa-1(6),2,4-triene-3-carboxamide] | 20 | –
CC1(C)CC(=O)N([C@@H]2CCc3ccc(C(=O)N[C@H]4CC(C)(C)Oc5ccccc54)cc32)C(=N)N1 [Example 84, (3R)-N-[(4S)-2,2-dimethylchroman-4-yl]-3-(2-imino-4,4-dimethyl-6-oxo-hexahydropyrimidin-1-yl)indane-5-carboxamide] | 0.9 | –
CC1(C)CC(=O)N(C2c3cc(C(=O)N[C@@H]4c5ccccc5C[C@H]4O)ccc3CC2(C)C)C(=N)N1 (stereo partly drawn) [Example 87, N-[(1R,2R)-2-hydroxyindan-1-yl]-3-(2-imino-4,4-dimethyl-6-oxo-hexahydropyrimidin-1-yl)-2,2-dimethyl-indane-5-carboxamide] | 105 | –
C[C@@H]1C[C@@H](N2C(=N)NC(C)(C)CC2=O)c2cc(C(=O)N[C@@H]3c4ccccc4OC[C@@]3(C)O)ccc21 [Example 104, (1R,3R)-N-[(3S,4R)-3-hydroxy-3-methyl-chroman-4-yl]-3-(2-imino-4,4-dimethyl-6-oxo-hexahydropyrimidin-1-yl)-1-methyl-indane-5-carboxamide] | 5 | –
COC1COc2ccc(C(=O)N[C@@H]3c4ccccc4C[C@H]3O)cc2C1N1C(=N)NC(C)(C)CC1=O (stereo partly drawn) [Example 110, N-[(1R,2R)-2-hydroxyindan-1-yl]-4-(2-imino-4,4-dimethyl-6-oxo-hexahydropyrimidin-1-yl)-3-methoxy-chromane-6-carboxamide] | 60 | –
CCC1(CC)CC(=O)N([C@@H]2CCOc3ccc(C(=O)N[C@@H](C)c4ccccc4OC)cc32)C(=N)N1 [Example 111, (4R)-4-(4,4-diethyl-2-imino-6-oxo-hexahydropyrimidin-1-yl)-N-[(1S)-1-(2-methoxyphenyl)ethyl]chromane-6-carboxamide] | 90 | –
CCC1(CC)CC(=O)N([C@H]2c3cc(C(=O)N[C@@H]4c5ccccc5C[C@H]4O)ccc3OC[C@H]2C)C(=N)N1 [Example 118, (3S,4R)-4-(4,4-diethyl-2-imino-6-oxo-hexahydropyrimidin-1-yl)-N-[(1R,2R)-2-hydroxyindan-1-yl]-3-methyl-chromane-6-carboxamide] | 0.9 | –
